The text below walks through data of article PMC10254444, “Targeting Myeloperoxidase Activity and Neutrophil ROS Production to Modulate Redox Process: Effect of Ellagic Acid and Analogues” (Molecules, 2023).

Assay [1] can be described thus: DPPH radical scavenging assay. The procedure:
The DPPH assay was performed according to the method developed by Brand-Williams et al., though slightly modified. A solution of 1 mM DPPH in absolute methanol was stirred for 40 min. Absorbance of the solution was adjusted to 0.650 ± 0.020 at 517 nm using fresh absolute methanol. For replicates, the DPPH assay was performed using a microplate reader. For this, 2 µL of EA taken as a standard or sample (EA analogue) were mixed with 198 µL of DPPH solution and incubated for 30 min in the dark covered with aluminum foil. When reacting with an antioxidant, the DPPH• radical is converted into DPPH, and its color changes from purple to yellow. The antioxidant effect may be easily evaluated by observing the decrease in visible absorption. The absorbance decrease was monitored at 510 nm for 30 min with a Multiskan Ascent 96-plate reader (ThermoLabsystem, Finland). A control consisted of 2 µL of DMSO in 198 µL of DPPH solution. A similar formula (Equation (1)) was applied to determine the DPPH radical-scavenging activity.

Assay [2] has as its target T1, Horseradish peroxidase (HRP) (Armoracia rusticana, UniProt P00433).
T1 construct: purchased Merck (Darmstadt, Germany)
T1 sequence (P00433 31-338 limits assumed): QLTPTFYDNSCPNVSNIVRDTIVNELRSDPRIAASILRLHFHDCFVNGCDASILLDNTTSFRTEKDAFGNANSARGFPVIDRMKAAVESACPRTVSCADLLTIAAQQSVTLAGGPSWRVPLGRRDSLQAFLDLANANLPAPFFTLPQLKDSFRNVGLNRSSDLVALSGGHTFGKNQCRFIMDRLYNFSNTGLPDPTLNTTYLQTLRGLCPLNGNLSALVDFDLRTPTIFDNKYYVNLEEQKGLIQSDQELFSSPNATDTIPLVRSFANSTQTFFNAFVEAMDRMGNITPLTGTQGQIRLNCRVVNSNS
Description: HRP-catalyzed oxidation of L012 (chemiluminescence). The class given is biochemical. The procedure:
[…] (HRP) reacts with hydrogen peroxide (H2O2), yielding “compound I (HRP^+.-Fe (IV=O))”, which is a reactive intermediate of HRP that is able to oxidize any potential reducing agent. Briefly, 2 μL of compound or reference molecule (ellagic acid) were incubated in phosphate buffer at pH 7.4 (153 μL, 50 mM) containing 5 μL HRP (100 µg/L), 20 μL L0-12 (10^−3 M), and 20 μL H2O2 (1 mM), and the chemiluminescence was immediately measured using a Fluoroskan Ascent 96-plate reader (ThermoLabsystem, Finland) at 37 °C for 30 min [32, 34]. The analysis was conducted in a 96-well microtiter plate. All the assays were performed in triplicate and repeated at least twice (N = 2; n = 6). The relative activity in terms of inhibition percentage of the tested compound or reference (ellagic acid) was compared to a control in the presence of DMSO taken as a solvent. The inhibition percentage was calculated using a similar formula (Equation (1)) as described above.

Assay [3] concerns the target T2, human myeloperoxidase (MPO) (Homo sapiens, UniProt P05164).
T2 construct: purchased Calbiochem Millipore
T2 sequence (P05164 49-745): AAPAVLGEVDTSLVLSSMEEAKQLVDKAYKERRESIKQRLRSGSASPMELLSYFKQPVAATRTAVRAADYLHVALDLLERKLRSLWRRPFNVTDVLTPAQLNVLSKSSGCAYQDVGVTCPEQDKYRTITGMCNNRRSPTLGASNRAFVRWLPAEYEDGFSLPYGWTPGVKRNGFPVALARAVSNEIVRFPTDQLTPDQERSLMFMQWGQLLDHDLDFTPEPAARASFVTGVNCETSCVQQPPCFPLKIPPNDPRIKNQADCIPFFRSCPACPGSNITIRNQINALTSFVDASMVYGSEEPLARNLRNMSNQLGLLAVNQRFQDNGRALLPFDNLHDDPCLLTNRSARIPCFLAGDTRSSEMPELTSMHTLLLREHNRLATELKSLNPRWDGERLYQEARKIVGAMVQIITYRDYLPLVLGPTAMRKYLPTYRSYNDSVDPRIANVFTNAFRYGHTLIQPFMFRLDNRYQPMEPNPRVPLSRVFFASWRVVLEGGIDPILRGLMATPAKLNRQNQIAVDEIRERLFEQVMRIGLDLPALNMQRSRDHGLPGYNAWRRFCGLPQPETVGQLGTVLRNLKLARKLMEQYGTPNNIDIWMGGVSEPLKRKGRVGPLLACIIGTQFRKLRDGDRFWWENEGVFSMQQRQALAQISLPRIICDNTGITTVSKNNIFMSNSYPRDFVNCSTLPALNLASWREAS
Description: MPO peroxidase activity, classical assay (Amplex Red). The format is biochemical. The protocol: Measurement of the peroxidase activity of MPO was performed by a classical enzymatic assay and by SIEFED assay as described by Nyssen et al.. The MPO solution was prepared with purified human MPO in dilution buffer (PBS 20 mM at pH 7.4 with 5 g/L BSA and 0.1% Tween-20). The solutions of EA or analogue, at final concentrations ranging from 10^−8 M to 10^−5 M, were incubated for 10 min with human MPO at a final concentration of 5 mU/mL before further use. The revelation of MPO activity was performed by monitoring the enzyme-catalyzed oxidation of Amplex Red in the presence of H2O2 (10 μM) and nitrite (4.5 mM) in phosphate buffer at pH 7.4.
After incubation, mixtures containing 100 μL of EA/analogue or vehicle (DMSO) and MPO were loaded into wells of microtiter plates (transparent), and the peroxidase activity was measured by adding 10 μL sodium nitrite solution (4.5 mM, final concentration) and 100 μL of the reactional solution containing 10 µM H2O2 and 40 µM Amplex® Red (AR) in phosphate buffer (50 mM) at pH 7.4. The oxidation of AR into the fluorescent resorufin adduct (λexcitation = 544 nm; λemission = 590 nm) was monitored for 30 min at 37 °C with a fluorescent plate reader (Fluoroskan Ascent, Fisher Scientific, Hampton, NH, USA). To eliminate the possibility of the artifact reactions that might arise from MPO activity or its natural substrate (H2O2), the direct reaction of ellagic acid or an analogue with H2O2 was performed in phosphate buffer (PBS) without the addition of human MPO.

By IC50 is commonly meant the concentration that gives 50% inhibition. Read a high IC50 as weaker potency in that assay. Turning to `CCOC1Oc2cc(C(=O)OC)cc(O)c2O1` (centres unmarked) [compound 11, methyl 2-ethoxy-7-hydroxybenzo[d][1,3]dioxole-5-carboxylate], the IC50 in assay [1] was 5.22 ± 0.05 µM; in assay [2], 3.55 ± 0.37 µM.
On to `CN(C)C(=O)Oc1cc2c(=O)oc3c(OC(=O)N(C)C)c(OC(=O)N(C)C)cc4c(=O)oc(c1OC(=O)N(C)C)c2c34` [compound 6, Sevellagic acid], for which the DPPH inhibition percentage in assay [1] (at the highest concentration) is given as −3%. Further, the “MPO inhibition, classical assay (in words)” value in assay [3] is reported as “lack of effect”. In addition, the “HRP inhibiting activity (in words)” value in assay [2] is recorded as “lack of effect”.
